# Values of other authors, collected in article PMC12057336 (Antimicrobial Agents and Chemotherapy, 2025).
# Like-named read-outs stand apart in the source and are kept apart here.
# Tests used:
# OCT3 = tested on: OCT3; set-up: method as in PMID 27645247, PMID 26976869, PMID 27550354; settings: cited from earlier work
# OCT1 = settings: cited from earlier work
# [1] = cited from earlier work; for median plasma concentration: standard doses
# [2] = thrombocytopenic patients with moderate renal failure
structure (smiles),measurement,setting,value
CC(=O)NC[C@H]1CN(c2ccc(N3CCOCC3)c(F)c2)C(=O)O1 [Linezolid],inhibitor of OCT3,OCT3,not an inhibitor
same,inhibitor of OCT1,OCT1,not an inhibitor
same,administered dose excreted in the urine as the parent drug,[1],35%
same,apparent volume of distribution (Vd),[1],40 to 50 L
same,elimination half-life (t1/2),[1],5 to 7 h
same,total clearance (CL),[1],80 mL/min
same,median plasma concentration,[1]; controls without liver cirrhosis,2.70 mg/L
same,mean recovery of linezolid radioactivity in excreta,[1]; healthy volunteers,93.8%
same,radioactivity excreted in the feces,[1]; healthy volunteers,9.9%
same,radioactivity excreted in the urine,[1]; healthy volunteers,83.9%
same,share of dosed linezolid in the urine,[1]; humans,more than 30%
same,CL,[1]; patient with acute-on-chronic liver failure,1.54 L/h
same,median plasma concentration,[1]; patients with liver cirrhosis,20.6 mg/L
same,median trough concentration,[1]; patients with mild hepatic impairment,5.51 mg/L
same,median trough concentration,[1]; patients with moderate hepatic impairment,6.70 mg/L
same,median trough concentration,[1]; patients with severe hepatic impairment,20.7 mg/L
same,CL,[1]; patients without concomitant liver failure,6.26 L/h
same,AUC0-24,[1]; [2],513.1 to 994.6 mg·h/L
same,trough concentration,[1]; [2],14.4 to 35.6 mg/L
